# Laboratory results from publication PMC7982521, “Studies on the Changes of Pharmacokinetics Behaviors of Phytochemicals and the Influence on Endogenous Metabolites After the Combination of Radix Bupleuri and Radix Paeoniae Alba Based on Multi-Component Pharmacokinetics and Metabolomics” (Frontiers in Pharmacology, 2021).
# Structures can show the parent of a compound that is named as a salt. Where two headings read alike, the source gives them in different places.
# Experiment: Multi-component pharmacokinetics in rat plasma after oral administration of RB, RPA or RB-RPA extracts (UPLC-HRMS, non-compartmental analysis)
# Type: in vivo, Sprague-Dawley rats
# Details: for AUC(0-inf) / half-life / AUC0-t / Cmax / tmax / AUC0-∞ / t1/2: rat plasma, mean ± SD, n = 7; for change of t1/2 after combination: oral RB-RPA group vs single herbal group
# Protocol: (Beijing, China, No. SCXK2018-0011). […] All rats were free to access the water and food until 12 h before the experiment. The animal study was reviewed and approved by the Experimental Animal Ethical Committee of Modern Research Center for Traditional Chinese Medicine, Shanxi University (animal ethic approval number: SXULL2018018), and all experimental procedures were carried out in accordance with the NIH Guide for the Care and Use of Laboratory Animals. After one week of adaptation, twenty-one rats were divided into three groups randomly, with seven rats in each group: 1) RPA group, were oral administration of Radix Paeoniae Alba extract (45 g-herb/kg); 2) RB group, were oral administration of Radix Bupleuri extract (45 g-herb/kg); 3) RB-RPA group, were oral administration of powder mixture of Radix Bupleuri and Radix Paeoniae Alba extracts (containing 45 g-herb/kg Radix Bupleuri and 45 g-herb/kg Radix Paeoniae Alba). […] Each group received intragastric administration with a volume of 10 ml/kg (rat body weight). […] All rats were free to access the water during the experiment. The blood samples at each time point were collected from seven rats. The blood samples were centrifuged at 4,000 rpm for 10 min and frozen at -80°C until analysis. Using a Thermo-Fisher Dionex UltiMate 3000 UHPLC system coupled with a Q Exactive Orbitrap-MS (Thermo-Fisher, United States) and Xcalibur workstation (Thermo-Fisher Scientific Inc.,Waltham, MA, United States) to acquire UPLC-HRMS raw data. Chromatographic separation of herb extracts and plasma samples was performed on an Acquity UPLC HSS T3 column (2.1 mm × 100 mm, 1.8 μm) maintained at 37°C. The flow rate was 0.2 ml/min and the injection volume was 5 μL. […] Mass spectrometry detection conditions were set as follows: the MS data were acquired under positive and negative ionization modes via heated electrospray ionization (HESI) source. […] The Q Exactive Orbitrap-MS has a fast positive and negative ion switching function, which could switch between positive-negative ion modes during the analysis of the same sample. So, we applied the method of switching ion modes in the detection process to quantify all analytes better. […] UPLC/MS/MS calibration and quantitation data were processed with Xcalibur workstation (Thermo-Fisher Scientific Inc., Waltham, MA, United States). For the eight components with standard reference, calculating their concentrations from the standard curves. For the other 30 components without standard reference, their concentrations were analyzed following the regression equations of homologous compounds ([Qiao et al., 2012]): paeoniflorin for P1 and M1 to M3; methylgallate for M4 to M10; saikosaponin […] and […]; saikosaponin […]; saikosaponin […]; saikosaponin B2 for P11 and M25 to […].
# [1] = male, Sprague-Dawley, rat, plasma, po, 45 g/kg, oral RB single extract 45 g-herb/kg
# [2] = oral RB single extract 45 g-herb/kg
# [3] = oral RB-RPA mixed extracts (45 g-herb/kg RB + 45 g-herb/kg RPA)
# [4] = male, Sprague-Dawley, rat, plasma, po, 45 g/kg, oral administration of mixed extracts RB-RPA
# [5] = male, Sprague-Dawley, rat, plasma, po, 45 g/kg, oral administration of single extract RPA
# [6] = oral administration of mixed extracts RB-RPA
# [7] = oral administration of single extract RPA
Molecule,AUC0-t [2] [ng·h/mL],AUC0-∞ [2] [ng·h/mL],Cmax [2] [ng/mL],t1/2 [2] [h],tmax [2] [min],AUC0-t [3] [ng·h/mL],AUC0-∞ [3] [ng·h/mL],Cmax [3] [ng/mL],t1/2 [3] [h],tmax [3] [min],AUC0-t [6] [ng·h/mL],AUC0-∞ [6] [ng·h/mL],Cmax [6] [ng/mL],t1/2 [6] [h],tmax [6] [min],AUC0-t [7] [ng·h/mL],AUC0-∞ [7] [ng·h/mL],Cmax [7] [ng/mL],t1/2 [7] [h],tmax [7] [min],further results
C[C@H]1O[C@@H](O[C@H]2CC[C@@]3(C)[C@@H](CC[C@]4(C)[C@@H]3C=C[C@]35OC[C@@]6(CCC(C)(C)C[C@H]63)[C@@H](O)C[C@]54C)[C@]2(C)CO)[C@H](O)[C@@H](O[C@@H]2O[C@H](CO)[C@@H](O)[C@H](O)[C@H]2O)[C@H]1O [Saikosaponin A],,,,,,,,,,,,,,,,,,,,,"AUC(0-inf) [1]: 104 ± 38.6 ng·h/mL; half-life [1]: 128 ± 25.8 min; AUC0-t (male, Sprague-Dawley, rat, plasma, po, 45 g/kg, oral RB single extract 45 g-herb/kg, read-out: AUC0-t): 102 ± 38.5 ng·h/mL; Cmax (male, Sprague-Dawley, rat, plasma, po, 45 g/kg, oral RB single extract 45 g-herb/kg, read-out: Cmax): 68.4 ± 16.9 ng/mL; tmax (male, Sprague-Dawley, rat, plasma, po, 45 g/kg, oral RB single extract 45 g-herb/kg, read-out: tmax): 32.4 ± 6 min; AUC(0-inf) (male, Sprague-Dawley, rat, plasma, po, 45 g/kg, oral RB-RPA mixed extracts (45 g-herb/kg RB + 45 g-herb/kg RPA)): 176 ± 45.9 ng·h/mL; Cmax (male, Sprague-Dawley, rat, plasma, po, 45 g/kg, oral RB-RPA mixed extracts (45 g-herb/kg RB + 45 g-herb/kg RPA), read-out: Cmax): 46.5 ± 12.4 ng/mL; half-life (male, Sprague-Dawley, rat, plasma, po, oral RB-RPA mixed extracts (45 g-herb/kg RB + 45 g-herb/kg RPA)): 213 ± 34.2 min; AUC0-t (male, Sprague-Dawley, rat, plasma, po, oral RB-RPA mixed extracts (45 g-herb/kg RB + 45 g-herb/kg RPA), read-out: AUC0-t): 170 ± 48.2 ng·h/mL; tmax (male, Sprague-Dawley, rat, plasma, po, oral RB-RPA mixed extracts (45 g-herb/kg RB + 45 g-herb/kg RPA), read-out: tmax): 37.8 ± 12.6 min; change of t1/2 after combination (rat): longer"
C[C@H]1O[C@@H](O[C@H]2CC[C@@]3(C)[C@@H](CC[C@]4(C)[C@@H]3C=C[C@]35OC[C@@]6(CCC(C)(C)C[C@H]63)[C@@H](O)C[C@]54C)[C@]2(C)CO)[C@H](O)[C@@H](O)[C@H]1O [Prosaikogenin F],54.21 ± 25.01,57.97 ± 25.49,14.68 ± 6.91,2.91 ± 0.84,92.4 ± 46.8,71.62 ± 34.91,77.58 ± 36.46,18.36 ± 8.50,3.46 ± 0.55,97.2 ± 44.4,,,,,,,,,,,
COC(=O)c1cc(O)c(O)c(O)c1 [Methyl gallate],,,,,,,,,,,,,,,,,,,,,"AUC(0-inf) [4]: 213 ± 40.5 ng·h/mL; half-life [4]: 286 ± 199 min; AUC0-t (male, Sprague-Dawley, rat, plasma, po, 45 g/kg, oral administration of mixed extracts RB-RPA, read-out: AUC0-t): 187 ± 42.4 ng·h/mL; Cmax (male, Sprague-Dawley, rat, plasma, po, 45 g/kg, oral administration of mixed extracts RB-RPA, read-out: Cmax): 57.6 ± 7.34 ng/mL; tmax (male, Sprague-Dawley, rat, plasma, po, 45 g/kg, oral administration of mixed extracts RB-RPA, read-out: tmax): 30 ± 9.6 min; AUC(0-inf) [5]: 144 ± 59.1 ng·h/mL; half-life [5]: 247 ± 139 min; AUC0-t (male, Sprague-Dawley, rat, plasma, po, 45 g/kg, oral administration of single extract RPA, read-out: AUC0-t): 141 ± 61.3 ng·h/mL; Cmax (male, Sprague-Dawley, rat, plasma, po, 45 g/kg, oral administration of single extract RPA, read-out: Cmax): 48.6 ± 9.47 ng/mL; tmax (male, Sprague-Dawley, rat, plasma, po, 45 g/kg, oral administration of single extract RPA, read-out: tmax): 34.8 ± 7.8 min; change of AUC0-∞ after combination (rat, oral RB-RPA group vs single herbal group (RB or RPA)): significantly increased"
C[C@H]1O[C@@H](O[C@H]2CC[C@@]3(C)[C@@H](CC[C@]4(C)[C@@H]3C=C[C@]35OC[C@@]6(CCC(C)(C)C[C@H]63)[C@H](O)C[C@]54C)[C@]2(C)CO)[C@H](O)[C@@H](O[C@@H]2O[C@H](CO)[C@@H](O)[C@H](O)[C@H]2O)[C@H]1O [Saikosaponin D],67.73 ± 18.62,69.92 ± 17.38,42.84 ± 11.53,2.01 ± 0.34,30 ± 9.6,99.98 ± 31.48,103.56 ± 33.67,,2.98 ± 0.89,52.2 ± 22.8,,,,,,,,,,,change of t1/2 after combination (rat): longer
O=S(=O)(O)Oc1cccc(O)c1O [Pyrogallol sulfate],,,,,,,,,,,217.62 ± 126.82,257.66 ± 175.61,24.16 ± 13.26,7.54 ± 3.63,105 ± 36.6,164.21 ± 79.60,187.63 ± 91.25,18.42 ± 5.81,7.72 ± 3.81,150 ± 46.8,
CC1C2OC3(C)CC(=O)C1CC3(O)O2 (stereo not drawn) [Paeonimetabolin I],,,,,,,,,,,4248.67 ± 1970.10,4806.68 ± 2129.42,575.13 ± 257.81,7.11 ± 2.01,49.8 ± 7.8,4864.64 ± 2525.32,5467.27 ± 2837.33,658.61 ± 349.75,7.39 ± 0.45,45 ± 0,
Pyrogallol glucuronide,,,,,,,,,,,643.56 ± 348.44,825.47 ± 393.90,47.97 ± 13.98,10.49 ± 2.78,175 ± 85.8,262.73 ± 101.68,336.41 ± 159.76,34.21 ± 4.94,6.16 ± 2.02,160 ± 111,"AUC0-∞ after combination relative to RPA alone (rat, oral RB-RPA vs RPA alone): 245.38%; Cmax after combination relative to RPA alone (rat, oral RB-RPA vs RPA alone): 140.22%; t1/2 after combination relative to RPA alone (rat, oral RB-RPA vs RPA alone): 170.29%"
C[C@H]1O[C@@H](O[C@H]2CC[C@@]3(C)[C@@H](CC[C@]4(C)[C@@H]3C=CC3=C5CC(C)(C)CC[C@]5(CO)[C@H](O)C[C@]34C)[C@]2(C)CO)[C@H](O)[C@@H](O[C@@H]2O[C@H](CO)[C@@H](O)[C@H](O)[C@H]2O)[C@H]1O [Saikosaponin B2],65.14 ± 19.35,67.92 ± 19.39,22.33 ± 2.99,2.70 ± 1.52,40.2 ± 7.8,98.63 ± 18.36,104.39 ± 23.28,28.19 ± 5.50,2.89 ± 1.14,49.8 ± 12,,,,,,,,,,,
CC(=O)OC[C@H]1O[C@@H](O[C@H]2[C@@H](O)[C@@H](C)O[C@@H](O[C@H]3CC[C@@]4(C)[C@@H](CC[C@]5(C)[C@@H]4C=CC46OCC7(CCC(C)(C)C[C@H]74)[C@@H](O)C[C@]65C)[C@]3(C)CO)[C@@H]2O)[C@H](O)[C@@H](O)[C@@H]1O (stereo partly drawn) [Acetyl-saikosaponin A],51.16 ± 11.83,57.19 ± 10.74,29.39 ± 11.24,3.50 ± 0.74,27.6 ± 11.4,62.08 ± 16.91,67.17 ± 16.28,27.55 ± 9.89,4.38 ± 1.27,32.4 ± 11.4,,,,,,,,,,,
CC1(C)CC[C@]23CO[C@@]4(C=C[C@@H]5[C@@]6(C)CC[C@H](O)C(C)(C)[C@@H]6CC[C@@]5(C)[C@]4(C)C[C@@H]2O)[C@@H]3C1 [Saikogenin E],34.53 ± 9.88,38.46 ± 9.92,12.31 ± 5.03,3.40 ± 1.47,45 ± 9.6,40.24 ± 15.68,45.24 ± 14.83,13.41 ± 6.28,3.99 ± 2.19,47.4 ± 6,,,,,,,,,,,
